In ChEMBL document CHEMBL5230103, “Hydroxamic acid hybrids as the potential anticancer agents: An Overview” (Eur J Med Chem, 2020):
Converted amounts (≈) assume the structure as drawn.

Key:
MV4-11 = assay: Cytotoxicity against human MV4-11 cells assessed as inhibition of cell growth by SRB assay; assay type: functional, cell-based
Histone deacetylase = assay: Inhibition of HDAC (unknown origin); assay type: protein assay, Homo sapiens
PC-3 [1] = assay: Cytotoxicity against human PC-3 cells assessed as inhibition of cell growth by SRB assay; assay type: functional, cell-based
HepG2 [2] = assay: Cytotoxicity against human HepG2 cells assessed as inhibition of cell growth by MTT assay; assay type: functional, cell-based
HCT-116 = assay: Cytotoxicity against human HCT-116 cells assessed as inhibition of cell growth by MTT assay; assay type: functional, cell-based
MCF7 [3] = assay: Cytotoxicity against human MCF7 cells assessed as inhibition of cell growth by MTT assay; assay type: functional, cell-based
K562 = assay: Cytotoxicity against human K562 cells assessed as inhibition of cell growth by MTT assay; assay type: functional, cell-based
A549 = assay: Cytotoxicity against human A549 cells assessed as inhibition of cell growth by MTT assay; assay type: functional, cell-based
MDA-MB-231 = assay: Cytotoxicity against human MDA-MB-231 cells assessed as inhibition of cell growth by MTT assay; assay type: functional, cell-based
PC-3 [4] = assay: Cytotoxicity against human PC-3 cells assessed as inhibition of cell growth by MTT assay; assay type: functional, cell-based
SW-620 [5] = assay: Cytotoxicity against human SW620 cells assessed as inhibition of cell growth by MTT assay; assay type: functional, cell-based
Histone deacetylase 2 = Histone deacetylase 2 (Homo sapiens, UniProt Q92769); assay: Inhibition of HDAC2 (unknown origin)
Chain of Histone deacetylase 2 (Q92769 whole entry): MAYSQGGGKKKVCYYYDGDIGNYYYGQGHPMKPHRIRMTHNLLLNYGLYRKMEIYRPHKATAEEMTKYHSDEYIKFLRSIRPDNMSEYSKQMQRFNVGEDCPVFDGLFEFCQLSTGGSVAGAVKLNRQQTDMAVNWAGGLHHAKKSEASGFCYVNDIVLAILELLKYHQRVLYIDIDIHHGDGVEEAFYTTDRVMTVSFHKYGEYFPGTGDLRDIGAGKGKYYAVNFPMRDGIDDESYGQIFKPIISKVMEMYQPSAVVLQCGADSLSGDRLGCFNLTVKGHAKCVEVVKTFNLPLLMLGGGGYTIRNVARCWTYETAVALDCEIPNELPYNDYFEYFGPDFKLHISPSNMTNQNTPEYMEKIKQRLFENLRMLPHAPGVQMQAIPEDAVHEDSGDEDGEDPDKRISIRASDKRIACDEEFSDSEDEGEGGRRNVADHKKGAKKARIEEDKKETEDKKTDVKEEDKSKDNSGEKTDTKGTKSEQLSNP

ASPC1 = assay: Cytotoxicity against human ASPC1 cells assessed as inhibition of cell growth by MTT assay; assay type: functional, cell-based
PC-3 [6] = assay: Potency index, ratio of vorinostat IC50 to test compound IC50 for cytotoxicity against human PC-3 cells assessed as inhibition of cell growth by MTT assay; assay type: functional
NCI-H23 [7] = assay: Potency index, ratio of vorinostat IC50 to test compound IC50 for cytotoxicity against human NCI-H23 cells assessed as inhibition of cell growth by MTT assay; assay type: functional
SW-620 [8] = assay: Potency index, ratio of vorinostat IC50 to test compound IC50 for cytotoxicity against human SW620 cells assessed as inhibition of cell growth by MTT assay; assay type: functional
NCI-H23 [9] = assay: Cytotoxicity against human NCI-H23 cells assessed as inhibition of cell growth by MTT assay; assay type: functional, cell-based
RPMI-8226 = assay: Cytotoxicity against human RPMI-8226 cells assessed as inhibition of cell growth by MTS assay; assay type: functional, cell-based
HL-60 = assay: Antiproliferative activity against human HL-60 cells assessed as inhibition of cell growth by MTT assay; assay type: functional, cell-based
HepG2 [10] = assay: Cytotoxicity against human HepG2 cells assessed as inhibition of cell growth measured after 72 hrs by MTT assay; assay type: functional, cell-based; settings: HepG2, 72 h
MCF7 [11] = assay: cells; assay type: functional, cell-based; settings: Homo sapiens, MCF7, 72 h
Description: Cytotoxicity against human MCF7 cells assessed as inhibition of cell growth measured after 72 hrs by MTT assay

U2OS = assay: cells; assay type: functional, cell-based; settings: Homo sapiens, 72 h
Description: Cytotoxicity against human U2OS cells assessed as inhibition of cell growth measured after 72 hrs by MTT assay

| SMILES | IC50 (Histone deacetylase) | IC50 (MV4-11) | IC50 (PC-3 [1]) | IC50 (MCF7 [3]) | IC50 (PC-3 [4]) | other results |
| --- | --- | --- | --- | --- | --- | --- |
| O=C(Cn1cnc2c(c1=O)C1CCCCC1S2)Nc1ccc(C(=O)NO)cc1 (stereo not given) | – | – | – | 4.86 µM | – | IC50 (HepG2 [2]): 4.86 µM; IC50 (HCT-116): 4.86 µM |
| CC(C)n1cnc2c(-c3cccc(COCC(=O)NO)c3)nc(N3CCOCC3)nc21 | 0.035 µM | 0.16 µM | 0.16 µM | – | – | – |
| O=C(CCCCCCN1C(=O)C2(OCCO2)c2cccc(Cl)c21)NO | – | – | – | – | 0.05 µM | IC50 (SW-620 [5]): 0.05 µM; IC50 (Histone deacetylase 2): 0.03 µM; IC50 (ASPC1): 0.05 µM |
| O=C(/C=C/c1ccc(Cn2cnc3cc(F)ccc3c2=O)cc1)NO | 0.15 µM | – | – | – | 0.62 µM | IC50 (SW-620 [5]): 0.62 µM; Ratio IC50 (PC-3 [6]): >3; Ratio IC50 (NCI-H23 [7]): >3; Ratio IC50 (SW-620 [8]): >3; IC50 (NCI-H23 [9]): 0.62 µM |
| CC(C)c1ccc(C(C)c2nnc(NC(=O)CCC(=O)NO)s2)cc1 (stereo not given) | 0.2 µM | – | – | – | 14.7 µM | IC50 (K562): 14.7 µM; IC50 (A549): 14.7 µM; IC50 (MDA-MB-231): 14.7 µM |
| Cc1ccc(-c2nnc(NC(=O)CCCCCCC(=O)NO)s2)o1 | – | – | – | 0.88 µM | 0.88 µM | IC50 (SW-620 [5]): 0.88 µM; IC50 (ASPC1): 0.88 µM |
| CCCCCSc1ncc(C(=O)NO)c(N(Cc2ccccc2)S(=O)(=O)c2cccc(OC)c2)n1 | – | – | – | – | – | IC50 (RPMI-8226): > 5.6 µM |
| C[C@H]1[C@@H](NC(=O)CCCC(=O)NO)O[C@@H]2O[C@@]3(C)CC[C@H]4[C@H](C)CC[C@@H]1[C@@]24OO3 | – | – | – | 1.28 mg/L | – | IC50 (HL-60): 1.28 mg/L (≈ 3.1 µM); IC50 (HepG2 [2]): 1.28 mg/L |
| O=C(CCCCCCC(=O)Nc1nnc(-c2ccco2)s1)NO | – | – | – | 0.88 µM | 0.88 µM | IC50 (SW-620 [5]): 0.88 µM; IC50 (ASPC1): 0.88 µM |
| CC(C)n1cnc2c(-c3cccc(OCC(=O)NO)c3)nc(N3CCOCC3)nc21 | 0.035 µM | 0.16 µM | 0.16 µM | – | – | – |
| COc1cc(NC(C)CCCNC(=O)CCC(=O)NO)c2ncccc2c1 (stereo not given) | – | – | – | – | – | IC50 (HepG2 [10]): 1.6 µM; IC50 (MCF7 [11]): 1.6 µM; IC50 (U2OS): 1.6 µM |
| O=C(CCCCCCCn1cnc2c(c1=O)C1CCCCC1S2)NO (stereo not given) | – | – | – | 3.32 µM | – | IC50 (HepG2 [2]): 3.32 µM; IC50 (HCT-116): 3.32 µM |
| O=C(CCCCCCC(=O)Nc1nnc(-c2ccc(Br)o2)s1)NO | – | – | – | 0.88 µM | 0.88 µM | IC50 (SW-620 [5]): 0.88 µM; IC50 (ASPC1): 0.88 µM |
| CCCCCSc1ncc(C(=O)NO)c(N(Cc2ccccc2)S(=O)(=O)c2ccc(F)cc2)n1 | – | – | – | – | – | IC50 (RPMI-8226): > 5.6 µM |
| COc1ccc(/C=C/C(=O)c2ccc(OCC(=O)NO)cc2)cc1 | – | – | – | 0.62 µM | – | IC50 (HepG2 [2]): 0.62 µM; IC50 (HCT-116): 0.62 µM |
| O=C(CCCCCCn1cnc2c(c1=O)C1CCCCC1S2)NO (stereo not given) | – | – | – | 3.32 µM | – | IC50 (HepG2 [2]): 3.32 µM; IC50 (HCT-116): 3.32 µM |
| CC(C)n1cnc2c(-c3cccc(COCCCCC(=O)NO)c3)nc(N3CCOCC3)nc21 | 0.035 µM | 0.16 µM | 0.16 µM | – | – | – |

The next lines start with results.

| IC50 (Histone deacetylase) | SMILES | IC50 (MV4-11) | IC50 (PC-3 [1]) | IC50 (MCF7 [3]) | IC50 (PC-3 [4]) | other results |
| --- | --- | --- | --- | --- | --- | --- |
| 0.035 µM | CC(C)n1cnc2c(-c3cccc(OCCCCCCC(=O)NO)c3)nc(N3CCOCC3)nc21 | 0.16 µM | 0.16 µM | – | – | – |
| 0.2 µM | O=C(CCC(=O)Nc1nnc(-c2ccc(O)cc2)s1)NO | – | – | – | 14.7 µM | IC50 (K562): 14.7 µM; IC50 (A549): 14.7 µM; IC50 (MDA-MB-231): 14.7 µM |
| 0.035 µM | CC(C)n1cnc2c(-c3cccc(OCCCCCCCC(=O)NO)c3)nc(N3CCOCC3)nc21 | 0.16 µM | 0.16 µM | – | – | – |
| 0.035 µM | CC(C)n1cnc2c(-c3cccc(OCCCCCC(=O)NO)c3)nc(N3CCOCC3)nc21 | 0.16 µM | 0.16 µM | – | – | – |
| 0.17 µM | Cc1ccc2c(=O)n(Cc3ccc(/C=C/C(=O)NO)cc3)cnc2c1 | – | – | – | 0.62 µM | IC50 (SW-620 [5]): 0.62 µM; Ratio IC50 (PC-3 [6]): >3; Ratio IC50 (NCI-H23 [7]): >3; Ratio IC50 (SW-620 [8]): >3; IC50 (NCI-H23 [9]): 0.62 µM |
| 0.278 µM | CC(C)n1cnc2c(-c3ccc(COCC(=O)NO)cc3)nc(N3CCOCC3)nc21 | 0.97 µM | 0.97 µM | – | – | – |
| 0.278 µM | CC(C)n1cnc2c(-c3ccc(COCCCCC(=O)NO)cc3)nc(N3CCOCC3)nc21 | 0.97 µM | 0.97 µM | – | – | – |
| 0.278 µM | CC(C)n1cnc2c(-c3ccc(COCCCCCCC(=O)NO)cc3)nc(N3CCOCC3)nc21 | 0.97 µM | 0.97 µM | – | – | – |
| 0.035 µM | CC(C)n1cnc2c(-c3cccc(COCCCCCCC(=O)NO)c3)nc(N3CCOCC3)nc21 | 0.16 µM | 0.16 µM | – | – | – |
